{"source": "paper PMC7828477", "about": "“Synthesis and Evaluation of Novel Iminosugars Prepared from Natural Amino Acids” (Molecules, 2021)", "assay_in_all_cases": "p-nitrophenyl glycoside hydrolysis, A405, […] min", "assay_type_in_all_cases": "biochemical", "key": {"[1]": {"molecular_target": "T1, β-galactosidase from Escherichia coli (Escherichia coli, UniProt P00722)", "T1 construct": "gene lacZ", "T1 sequence (P00722 2-1024)": "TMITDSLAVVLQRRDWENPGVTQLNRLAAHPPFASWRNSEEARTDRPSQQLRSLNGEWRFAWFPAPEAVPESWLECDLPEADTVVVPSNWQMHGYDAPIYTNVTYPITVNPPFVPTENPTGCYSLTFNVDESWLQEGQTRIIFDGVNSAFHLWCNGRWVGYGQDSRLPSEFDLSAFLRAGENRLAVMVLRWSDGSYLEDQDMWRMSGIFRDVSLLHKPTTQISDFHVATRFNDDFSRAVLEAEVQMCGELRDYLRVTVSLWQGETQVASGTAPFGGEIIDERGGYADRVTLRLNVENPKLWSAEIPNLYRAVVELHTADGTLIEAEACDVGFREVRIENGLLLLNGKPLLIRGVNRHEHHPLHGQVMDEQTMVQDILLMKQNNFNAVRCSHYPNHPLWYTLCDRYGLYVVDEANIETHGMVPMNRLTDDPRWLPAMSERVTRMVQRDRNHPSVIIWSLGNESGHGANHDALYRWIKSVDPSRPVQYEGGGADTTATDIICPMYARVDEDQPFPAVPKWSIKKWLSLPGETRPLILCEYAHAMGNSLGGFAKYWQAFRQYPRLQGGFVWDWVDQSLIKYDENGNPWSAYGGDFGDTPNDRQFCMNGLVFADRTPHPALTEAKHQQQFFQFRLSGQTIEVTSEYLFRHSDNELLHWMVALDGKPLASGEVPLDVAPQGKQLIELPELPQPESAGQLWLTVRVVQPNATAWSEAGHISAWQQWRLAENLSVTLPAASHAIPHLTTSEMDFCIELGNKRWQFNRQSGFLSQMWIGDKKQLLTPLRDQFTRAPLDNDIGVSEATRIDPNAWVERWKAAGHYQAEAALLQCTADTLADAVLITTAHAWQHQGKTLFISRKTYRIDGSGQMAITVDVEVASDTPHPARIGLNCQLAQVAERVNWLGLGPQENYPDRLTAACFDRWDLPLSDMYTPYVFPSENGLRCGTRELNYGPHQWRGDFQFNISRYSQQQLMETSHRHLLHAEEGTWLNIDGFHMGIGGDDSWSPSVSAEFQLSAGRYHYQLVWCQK", "details": "read-out: β-Gal"}, "[2]": {"molecular_target": "α-galactosidase from Green coffee (Coffea arabica, UniProt Q42656)", "sequence (Q42656 16-378)": "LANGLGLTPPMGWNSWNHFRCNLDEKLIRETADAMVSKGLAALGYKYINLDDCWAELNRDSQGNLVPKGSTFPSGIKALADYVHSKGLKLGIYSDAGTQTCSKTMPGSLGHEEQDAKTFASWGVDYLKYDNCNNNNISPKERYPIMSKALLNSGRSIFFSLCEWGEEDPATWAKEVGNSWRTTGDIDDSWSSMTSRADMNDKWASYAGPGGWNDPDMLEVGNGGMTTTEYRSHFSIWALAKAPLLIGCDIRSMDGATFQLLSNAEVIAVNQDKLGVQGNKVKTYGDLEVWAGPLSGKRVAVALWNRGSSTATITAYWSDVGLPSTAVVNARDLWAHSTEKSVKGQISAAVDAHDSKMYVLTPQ", "details": "read-out: α-Gal"}, "[3]": {"molecular_target": "T2, α-L-fucosidase from Homo sapiens (Homo sapiens, UniProt P04066)", "T2 construct": "gene FUCA1", "T2 sequence (P04066 32-466)": "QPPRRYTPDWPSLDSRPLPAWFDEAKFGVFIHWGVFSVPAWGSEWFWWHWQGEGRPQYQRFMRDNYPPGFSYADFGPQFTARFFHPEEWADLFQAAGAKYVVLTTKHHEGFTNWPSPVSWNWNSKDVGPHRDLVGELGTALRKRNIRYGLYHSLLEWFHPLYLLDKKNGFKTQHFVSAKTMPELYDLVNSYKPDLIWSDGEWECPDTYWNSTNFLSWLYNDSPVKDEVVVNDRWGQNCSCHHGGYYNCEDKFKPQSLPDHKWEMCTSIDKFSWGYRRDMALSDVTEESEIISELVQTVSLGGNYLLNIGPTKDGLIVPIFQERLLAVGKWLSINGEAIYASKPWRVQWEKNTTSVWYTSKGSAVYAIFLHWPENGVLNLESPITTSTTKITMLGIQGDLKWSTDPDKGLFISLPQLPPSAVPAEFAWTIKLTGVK", "details": "read-out: α-L-Fuc"}}, "note": "Structures can show the parent of a compound that is named as a salt."}
{"smiles": "OC[C@@H]1[C@@H]2CN[C@@H](CO)[C@@H](O)[C@H]12", "note": "[11b]", "values": [{"measurement": "activity at 5000 µM", "setting": "[1]", "value": 25, "unit": "%"}]}
{"smiles": "O=C(O)[C@H]1[C@@H]2CN[C@@H](CO)[C@@H](O)[C@@H]21", "note": "[10a, (1R,4S,5S,6S,7S)-7-carboxy-5-hydroxy-4-(hydroxymethyl)-3-azabicyclo[4.1.0]heptan-3-ium trifluoroacetate]", "values": [{"measurement": "activity at 5000 µM", "setting": "[2]", "value": 154, "unit": "%"}]}
{"smiles": "C[C@@H]1NC[C@H]2[C@H](CO)[C@H]2[C@H]1O", "note": "[6b, (1S,4S,5R,6S,7S)-7-(hydroxymethyl)-4-methyl-3-azabicyclo[4.1.0]heptan-5-ol]", "values": [{"measurement": "activity at 5000 µM", "setting": "[3]", "value": 142, "unit": "%"}]}
